Experimental data as given in US8710018B2, “Methods and compositions for inhibiting progression to chronic cardiac failure” (priority 2008, dated 2014).

How the values were obtained:
[1] = system: rat myocardial infarction model (left anterior descending (LAD) artery ligation); test: Rat myocardial infarction model (LAD artery ligation), echocardiographic function of the remote myocardium; type: in vivo
Description: Although believed to be applicable to several different precipitating causes of CHF, the present inventor initially chose a myocardial infarction model because it would allow the effects of the infarct on the normal remaining myocardium to be studied without confounding factors, particularly the presence of disease in the tissues studied.
An important consequence of an MI is that the uninvolved, often normal, remote myocardium (RM) must assume the entire workload of the ventricle. […] The subcellular events which control and set in motion, the progression to CHF were heretofore unknown. The present inventor hypothesized that the progression begins when the remaining normal myocardium (RM) must assume the entire cardiac load, in effect a large increase for the RM, producing an unfavorable myocardial energy supply/demand ratio which leads to depressed myocardial energy levels. Moreover, because of the continuous nature of the stress imposed, there is essentially no opportunity to recover. As a result, the continued breakdown of AMP with further erosion of ATP levels occurs. Studies to understand this progression in a myocardial infarction (MI) model were undertaken. The hypothesis that a fall in RM energy levels, including myocardial ATP, leads to decreased function was tested by infusing ribose in a rat MI model. A rat myocardial infarction model involving (left anterior descending (LAD) artery ligation) was utilized. In this model the RM must produce the entire cardiac output and left ventricular (LV) dysfunction develops as depicted in FIG. 2 and in the results depicted in FIGS. 3-6.
Methods: Male Lewis rats (250-300 g, n=12) were evaluated by initial baseline 2D guided M-mode echocardiographic analysis using an HP SONOS 1550 system. The echocardiography included short axis views and EF by cubed formula, analyzing the variables of LVdd, LVsd, RM wall thickness, EF and SF. […] Animals underwent ligation of the left anterior descending coronary artery by to produce an anterior wall MI at 1-2 days after pump placement and received continuous venous infusion of 0.9% NaCl solution (at 30 μl/kg/hr) with or without 2.5% D-ribose (N=6 for each group) via the implanted osmotic mini-pump for 14 days. Echocardiographic analysis was performed 2 and 4 weeks post-MI to assess changes in function by ejection indices (ventricular contractility, ejection and shortening fractions), chamber dimensions, and wall thickness. FIG. 3 depicts the M-mode echocardiographic appearance of a rat heart in which post MI CHF has developed.

[2] = system: patients with chronic coronary artery disease and CHF; conditions: 3 weeks of oral D-ribose, 15 patients with existing CHF, cited from earlier work
myocardial ATP levels [3] = conditions: cited from earlier work
myocardial ATP levels [4] = conditions: rats given a toxic dose of isoproterenol and constriction of the abdominal aorta; cited from earlier work
rodent MI model = conditions: continuous i.v. ribose from before ligation for up to 48 hours, cited from earlier work
[5] = 2 wks post MI, 2.5% D-ribose continuous venous infusion for 14 days
[6] = 4 wks post MI, 2.5% D-ribose continuous venous infusion for 14 days
[7] = Pre-MI (baseline), ribose group
[8] = ribose infusion for 14 days after MI

## O=C[C@H](O)[C@H](O)[C@H](O)CO [Ribose, D-ribose]
[1]; [5]
  Ejection fraction (EF): 50.5 ± 5.9 %
  LV diastolic diameter: 0.72 ± 0.08 cm
  LV systolic diameter: 0.47 ± 0.22 cm
  Posterior wall diastolic thickness: 0.18 ± 0.12 cm
  Shortening fraction (SF): 19.8 ± 4.4%
[1]; [6]
  Ejection fraction (EF): 49.1 ± 9.4 %
  LV diastolic diameter: 0.76 ± 0.07 cm
  LV systolic diameter: 0.64 ± 0.09 cm
  Posterior wall diastolic thickness: 0.13 ± 0.03 cm
  Septal diastolic thickness: 0.12 ± 0.02 cm
  Shortening fraction (SF): 19.9 ± 6.1 %
[1]; [7]
  Ejection fraction (EF): 76.4 ± 5.9%
  LV systolic diameter: 0.39 ± 0.06 cm
  Posterior wall diastolic thickness: 0.13 ± 0.02 cm
  Septal diastolic thickness: 0.13 ± 0.02 cm
  Shortening fraction (SF): 38.6 ± 5.3%
[1]; Pre-MI (baseline), ribose group, 2.5% D-ribose continuous venous infusion 30 μl/kg/hr for 14 days
  LV diastolic diameter: 0.64 ± 0.04 cm
[1]; [8]
  contractility (EF, SF) compared to the untreated animals: better preserved
  ventricular dilation: significantly reduced
  wall thickness compared to the untreated animals: increased
[2]; P< or =0.01
  quality of life by questionnaire: 467±128
[2]; P=0.002
  E wave deceleration: 196±42
[2]; P=0.02
  left atrial dimension: 47 ± 18 mL
Myocardial ATP levels [3]; acute stress models of recovery (i.e. global ischemia), ribose bypasses the G6PDH step
  speeding of ATP recovery: at least 10 fold
Myocardial ATP levels [3]; global ischemia and reperfusion model, ribose infusion
  return of myocardial ATP levels and function: greatly enhance return
Myocardial ATP levels [4]
  ATP levels: maintained for 24 hours
Rodent MI model
  post-MI rise in LV end-diastolic pressure: reduced
Rodent MI model; first (24 hr) time point
  fall of ATP in the nonischemic myocardium: reduce the fall of ATP
